Data published in patent US20230271956A1, “AMIDE DERIVATIVES” (Merck Patent GmbH, priority 2020, published 2023).

Experiments:
[1] = biological target: T1, human rec ACSS2 (Homo sapiens, UniProt Q9NR19); assay: Biochemical activity ACSS2 assay (AMP-Glo); settings: human recombinant ACSS2, AMP-Glo, 180 min at 37° C.
T1 construct: myc (C); purchased Origene
Description: The biochemical activity assay for ACSS2 is based on the detection of released AMP by AMP-Glo ™ Assay kit (Promega, Madison). The assay is run in three steps: the enzymatic reaction in which human rec ACSS2 activates acetate with ATP and Coenzyme A as cosubstrates to acetyI-coA thereby releasing AMP and the detection reaction of AMP by AMP Glo assay in which after the destruction of the residual ATP with AMP Glo reagent 1 produced AMP is converted to ATP that is measured in a luciferase assay system (detection reagent). The ACSS2 activity correlates with the detected luminescence signal.
The assay was performed in Perkin Elmer 384well white Proxiplates in a total volume of 8 µl.
1 nM (fc) C-term myc tagged ACSS2 (human, recombinant, Origene, Rockville, US) and a mixture of 100 µM (fc) ATP, 100 µM (fc) Coenzyme A and 500 µM (fc) sodium acetate were incubated in a total volume of 5 µl (50 mM Hepes, 1 mM Mg-chloride, 150 mM NaCl, 1 mM DTT, 0.01 % (w/v) BSA, 0.3 % DMSO, pH 7.5) in the absence or presence of the test compound (10 dilution concentrations, start conc 30 µM) for 180 min at 37° C. The reaction was stopped and residual ATP destroyed by the addition of 1 µl AMP Glo reagent solution (Promega, Madison, US). After 1 h incubation at room temperature 2 µl of AMP Glo detection reagent was added and the assay was incubated for 0.75 hr at room temperature. The luminescence signal was measured with an Envision multimode reader (Perkin Elmer LAS Germany GmbH) at 700 nm in luminescence mode. The full value used was the inhibitor-free reaction. The pharmacological zero value was generated by addition of ACSS2 inhibitor (Ac-CoA Synthase Inhibitor - CAS 508186-14-9 -Calbiochem) in a final concentration of 5 µM. The inhibitory values (IC50) were determined using the program Assay Analyzer® from GeneData.

[2] = biological target: T2, ACSS2 (Homo sapiens, UniProt Q9NR19); assay: Cellular assay of 14C acetate incorporation into histones (IC50 ACSS2 cellular histone); assay type: cell-based; settings: HCT-15 cells
T2 construct: endogenous fatty acid synthesis activity in the human HCT-15 cancer cell line; endogenous in cells; host or cells: HCT-15
T2 sequence (Q9NR19 whole entry): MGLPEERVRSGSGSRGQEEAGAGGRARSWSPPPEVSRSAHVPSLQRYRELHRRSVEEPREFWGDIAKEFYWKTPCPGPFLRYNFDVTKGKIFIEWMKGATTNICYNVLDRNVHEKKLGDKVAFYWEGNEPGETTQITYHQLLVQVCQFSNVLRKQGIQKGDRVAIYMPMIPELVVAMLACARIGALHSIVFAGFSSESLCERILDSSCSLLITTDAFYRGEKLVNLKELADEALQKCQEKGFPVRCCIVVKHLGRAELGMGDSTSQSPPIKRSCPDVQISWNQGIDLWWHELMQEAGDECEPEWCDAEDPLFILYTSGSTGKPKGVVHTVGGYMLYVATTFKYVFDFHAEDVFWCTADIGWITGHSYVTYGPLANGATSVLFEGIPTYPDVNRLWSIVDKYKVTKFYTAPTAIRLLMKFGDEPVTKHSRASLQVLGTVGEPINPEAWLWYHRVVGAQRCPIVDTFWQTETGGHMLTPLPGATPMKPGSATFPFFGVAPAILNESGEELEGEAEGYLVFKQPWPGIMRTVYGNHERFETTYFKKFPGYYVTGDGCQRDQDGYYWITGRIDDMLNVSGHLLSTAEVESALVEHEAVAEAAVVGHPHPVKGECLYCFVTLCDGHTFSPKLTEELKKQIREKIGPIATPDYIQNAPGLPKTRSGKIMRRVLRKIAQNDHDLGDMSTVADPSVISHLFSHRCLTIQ
Description: This protocol describes a cellular assay capable to quantify endogenous histone acetylation activity in the human HCT-15 cancer cell line following the incorporation of extracellularly administered radiolabeled ^14C acetate with a scintillation based read out on acid extracted histones.
HCT-15 cells are trypsinized, washed and suspended in DMEM culture medium supplemented with penicillin/streptomycin (100 U/mL), sodium pyruvate (1 mM), and 10% FBS
Compounds serial dilutions are prepared in 96-well V-bottom microplate from 10 mM stock solutions in DMSO. From these dilutions 0.5 µl are transferred to a fresh plate including pure DMSO as negative control. The dilutions are prepared such, that the final concentration in the assay is 1/400 of the concentration in the serial dilution. The final DMSO concentration in the assay is 0.25 %.
The cell suspension is seeded at densities of 2x10^5 cells per 170 µl into individual wells of a 96 well plate each containing 0.5 µl aliquots of compound serial dilutions and are kept for 1h in a cell incubator. To each well 30 µL of a mixture containing 0.5 mCi/mL of ^14C-acetate with full medium are added. Then, the wells are incubated for 3 hrs in the cell incubator.
Further steps of the procedure should be conducted on ice or instrumentations precooled to 4° C. Cells are sedimented in the 96-well V-bottom microplate by centrifugation (Eppendorf 5804 R) at 1200 rpm for 5 min. The supernatant is removed and the cells are washed twice with 200µL of PBS-NaB (5 mM sodium butyrate) buffer by iterative resuspension and centrifugation. Finally, the cells are resuspended in 50 µL of TEB (PBS-NaB + 0.5 % Triton X-100) and left on ice for 10 minutes. After centrifugation at 2300 rpm for 10 minutes at 4° C. the supernatant is removed, the remaining pellet is suspended in 50 µL of 0.2 M HCl and incubated over night at 4° C. After incubation the well plate is shaken for 2 minutes in a MTP plate shaker set to 1200 rpm and then centrifuged at 3700 rpm for 10 mins. The lysate is carefully aspirated (~43 µL) and transferred into a white MTP plate (Greiner bio-one 65509). 90 µL of Ultima Gold XR scintillation cocktail are added and the plates are sealed with a transparent cover tape before mixing vigorously using plate shaker set to 1200 rpm. Radioactivity from ^14C incorporation in the wells is measured as CPM count in a MicroBeta Trilux luminescence counter.

T1 sequence (Q9NR19 whole entry): as above

CCn1cc(NC(=O)c2cnc3nc(C(O)(c4ccccc4)c4ccccc4)n(C)c3c2)cn1 [Compound 114, N-(1-ethyl-1H-pyrazol-4-yl)-2-(hydroxydiphenylmethyl)-1-methyl-1H-imidazo[4,5-b]pyridine-6-carboxamide]
IC50 [1]: 10 to 100 nM
IC50 [2]: 10 to 100 nM

CCn1cnc(NC(=O)c2cc3c(nc2OC)nc(C(O)(c2ccccc2)c2ccccn2)n3CC)n1 (single isomer, unassigned) [Compound 54, 1-ethyl-N-(1-ethyl-1H-1,2,4-triazol-3-yl)-2-[hydroxy(phenyl)(pyridin-2-yl)methyl]-5-methoxy-1H-imidazo[4,5-b]pyridine-6-carboxamide]
IC50 [1]: 10 to 100 nM
IC50 [2]: 10 to 100 nM

CCn1c(C(O)(c2ccccc2)c2ccccc2)nc2nc(Cl)c(C(=O)Nc3cnn(CCOC)c3)cc21 [Compound 67, 5-chloro-1-ethyl-2-(hydroxydiphenylmethyl)-N-[1-(2-methoxyethyl)-1H-pyrazol-4-yl]-1H-imidazo[4,5-b]pyridine-6-carboxamide]
IC50 [1]: 10 to 100 nM
IC50 [2]: 10 to 100 nM

CCn1cnc(NC(=O)c2cc3c(nc2Cl)nc(C(O)(c2ccccc2F)c2ccccc2F)n3CC)n1 [Compound 100, 2-[bis(2-fluorophenyl)(hydroxy)methyl]-5-chloro-1-ethyl-N-(1-ethyl-1H-1,2,4-triazol-3-yl)-1H-imidazo[4,5-b]pyridine-6-carboxamide]
IC50 [1]: 0.01 to 1 nM
IC50 [2]: 1 to 10 nM

CCn1cnc(NC(=O)c2cc3c(nc2OC)nc(C(O)(c2ccccc2)c2cccnn2)n3CC)n1 (racemic) [Compound 45, 1-ethyl-N-(1-ethyl-1H-1,2,4-triazol-3-yl)-2-[hydroxy(phenyl)(pyridazin-3-yl)methyl]-5-methoxy-1H-imidazo[4,5-b]pyridine-6-carboxamide]
IC50 [1]: 1 to 10 nM
IC50 [2]: 1 to 10 nM

CCn1cnc(NC(=O)c2cc3c(nc2OC)nc(C(O)(c2ccccc2)c2ncccn2)n3CC)n1 (racemic) [Compound 49, 1-ethyl-N-(1-ethyl-1H-1,2,4-triazol-3-yl)-2-[hydroxy(phenyl)(pyrimidin-2-yl)methyl]-5-methoxy-1H-imidazo[4,5-b]pyridine-6-carboxamide]
IC50 [1]: 10 to 100 nM
IC50 [2]: 1 to 10 nM

CCc1nc(CNC(=O)c2cc3c(nc2OC)nc(C(O)(c2ccccc2)c2ccccc2)n3CC)no1 [Compound 63, 1-ethyl-N-[(5-ethyl-1,2,4-oxadiazol-3-yl)methyl]-2-(hydroxydiphenylmethyl)-5-methoxy-1H-imidazo[4,5-b]pyridine-6-carboxamide]
IC50 [1]: 100 to 10000 nM
IC50 [2]: 10 to 100 nM

CCn1cnc(NC(=O)c2cc3c(nc2OC)nc(C(O)(c2ccccc2)c2ccc(OC(F)F)cc2)n3CC)n1 (single isomer, unassigned) [Compound 72]
IC50 [1]: 1 to 10 nM
IC50 [2]: 0.01 to 1 nM

CCn1cnc(NC(=O)c2cc3c(nc2OC)nc(C(O)(c2ccccc2)c2ccc(OC(F)F)cc2)n3CC)n1 (racemic) [Compound 86, 2-{[4-(difluoromethoxy)phenyl](hydroxy)phenylmethyl}-1-ethyl-N-(1-ethyl-1H-1,2,4-triazol-3-yl)-5-methoxy-1H-imidazo[4,5-b]pyridine-6-carboxamide]
IC50 [1]: 1 to 10 nM
IC50 [2]: 1 to 10 nM

CCc1c(C(O)(c2ccccc2)c2ccccn2)nc2cc(OC)c(C(=O)Nc3ncn(CC)n3)cn12 (single isomer, unassigned) [Compound 17, 3-ethyl-N-(1-ethyl-1,2,4-triazol-3-yl)-2-[hydroxy-phenyl-(2-pyridyl)methyl]-7-methoxy-imidazo[1,2-a]pyridine-6-carboxamide]
IC50 [1]: 10 to 100 nM
IC50 [2]: 10 to 100 nM

CCn1ccc(NC(=O)c2cc3c(nc2OC)nc(C(O)(c2ccccc2)c2ccccc2)n3CC)n1 [Compound 77, 1-ethyl-N-(1-ethyl-1H-pyrazol-3-yl)-2-(hydroxydiphenylmethyl)-5-methoxy-1H-imidazo[4,5-b]pyridine-6-carboxamide]
IC50 [1]: 1 to 10 nM
IC50 [2]: 1 to 10 nM

CCn1cnc(NC(=O)c2cnc3nc(C(O)(c4ccccc4F)c4ccccc4F)n(CC)c3c2)n1 [Compound 110, 2-[bis(2-fluorophenyl)(hydroxy)methyl]-1-ethyl-N-(1-ethyl-1H-1,2,4-triazol-3-yl)-1H-imidazo[4,5-b]pyridine-6-carboxamide]
IC50 [1]: 1 to 10 nM
IC50 [2]: 1 to 10 nM

CCn1cnc(NC(=O)c2cc3c(nc2OC)nc(C(O)(c2ccccc2F)c2ccc(OC(F)F)cc2F)n3CC)n1 (single isomer, unassigned) [Compound 71]
IC50 [1]: 0.01 to 1 nM
IC50 [2]: 0.01 to 1 nM

CCn1cc(NC(=O)c2cc3c(nc2Cl)nc(C(O)(c2ccccc2F)c2ccc(OC(F)F)cc2F)n3CC)cn1 (racemic) [Compound 93, 5-chloro-2-{[4-(difluoromethoxy)-2-fluorophenyl](2-fluorophenyl)hydroxymethyl}-1-ethyl-N-(1-ethyl-1H-pyrazol-4-yl)-1H-imidazo[4,5-b]pyridine-6-carboxamide]
IC50 [1]: 1 to 10 nM
IC50 [2]: 10 to 100 nM

CCn1cnc(NC(=O)c2cc3c(nc2OC)nc(C(O)(c2ccccc2C)c2ccccc2C)n3CC)n1 [Compound 52, 1-ethyl-N-(1-ethyl-1H-1,2,4-triazol-3-yl)-2-[hydroxybis(2-methylphenyl)methyl]-5-methoxy-1H-imidazo[4,5-b]pyridine-6-carboxamide]
IC50 [1]: 10 to 100 nM
IC50 [2]: 10 to 100 nM

CCn1cc(NC(=O)c2cnc3nc(C(O)(c4ccccc4)c4ccccc4)n(CC)c3c2)cn1 [Compound 113, 1-ethyl-N-(1-ethyl-1H-pyrazol-4-yl)-2-(hydroxydiphenylmethyl)-1H-imidazo[4,5-b]pyridine-6-carboxamide]
IC50 [1]: 10 to 100 nM
IC50 [2]: 10 to 100 nM

CCn1ncc(NC(=O)c2cc3c(nc2OC)nc(C(O)(c2ccccc2)c2ccccc2)n3CC)n1 [Compound 58, 1-ethyl-N-(2-ethyl-2H-1,20,3-triazol-4-yl)-2-(hydroxydiphenylmethyl)-5-methoxy-1H-imidazo[4,5-b]pyridine-6-carboxamide]
IC50 [1]: 10 to 100 nM
IC50 [2]: 10 to 100 nM

CCn1cnc(NC(=O)c2cc3c(nc2OC)nc(C(O)(c2ccccc2)c2ccncn2)n3CC)n1 (racemic) [Compound 42, 1-ethyl-N-(1-ethyl-1H-1,2,4-triazol-3-yl)-2-[hydroxy(phenyl)(pyrimidin-4-yl)methyl]-5-methoxy-1H-imidazo[4,5-b]pyridine-6-carboxamide]
IC50 [1]: 10 to 100 nM
IC50 [2]: 1 to 10 nM

CCn1c(C(O)(c2ccccc2)c2ccccc2)nc2nc(OC)c(C(=O)Nc3cnn(CCOC)c3)cc21 [Compound 70, 1-ethyl-2-(hydroxydiphenylmethyl)-5-methoxy-N-[1-(2-methoxyethyl)-1H-pyrazol-4-yl]-1H-imidazo[4,5-b]pyridine-6-carboxamide]
IC50 [1]: 10 to 100 nM
IC50 [2]: 10 to 100 nM

CCn1cc(NC(=O)c2cc3c(nc2OC)nc(C(O)(c2ccccc2)c2ccc(OC(F)F)cc2F)n3CC)cn1 (racemic) [Compound 79, 2-{[4-(difluoromethoxy)-2-fluorophenyl](hydroxy)phenylmethyl}-1-ethyl-N-(1-ethyl-1H-pyrazol-4-yl)-5-methoxy-1H-imidazo[4,5-b]pyridine-6-carboxamide]
IC50 [1]: 10 to 100 nM
IC50 [2]: 1 to 10 nM
